Assay results published in publication PMC3775947 (Clinical lymphoma, myeloma & leukemia, 2013).
Read-outs that look alike come from different tables or passages of the source.

Legend:
[1] = Plasma pharmacokinetics of barasertib, barasertib-hQPA and LDAC; conditions: for Steady-state plasma concentrations observed from, after start of infusion: 7-day continuous iv infusion of barasertib, Day 1, maintained until EOI; for AUC0–EOI, barasertib-hQPA / AUC0–t, barasertib-hQPA / Css, barasertib-hQPA / Css, barasertib: geometric mean (CV%)
[2] = test system: elderly patients with newly diagnosed AML; experiment: Phase I dose escalation: dose-limiting toxicities and maximum tolerated dose; format: in vivo, human
[3] = test system: elderly patients with newly diagnosed AML; experiment: AML response assessed by investigators; format: in vivo, human
[4] = test system: patients with AML; conditions: cited from earlier work
[5] = test system: elderly patients with newly diagnosed AML
[6] = plasma, barasertib 800 mg + LDAC 400 mg, n=6
[7] = plasma, barasertib 1000 mg + LDAC 400 mg, n=13
[8] = plasma, barasertib 1200 mg + LDAC 400 mg, n=3
[9] = all patients, barasertib + LDAC, n=22
[10] = barasertib 800 mg + LDAC 400 mg, n=6
[11] = barasertib 1000 mg + LDAC 400 mg, n=13
[12] = barasertib 1200 mg + LDAC 400 mg, n=3
[13] = Total, barasertib 800-1200 mg + LDAC 400 mg, n=22
[14] = combination treatment barasertib + LDAC
[15] = overall, barasertib + LDAC, n=22

CCN(CCO)CCCOc1ccc2c(Nc3cc(CC(=O)Nc4cccc(F)c4)[nH]n3)ncnc2c1 [Barasertib-hQPA, barasertib hydroxy-QPA]
Steady-state plasma concentrations observed from, after start of infusion [1]: 24 h
Accumulation ([1]; 28-day cycles): Minimal accumulation
Barasertib-hQPA exposure (AUC and Css) versus barasertib dose ([1]; 800-1200 mg, trend, low patient numbers): increase more than proportionally
Clearance rate, geometric mean ([1]; barasertib 1000 mg cohort, range 23.4–43.3): 30.5 L/h
Volume of distribution at steady state, geometric mean ([1]; barasertib 1000 mg cohort, range 509–1050): 713 L
Exposure to barasertib-hQPA during the infusion relative to that of barasertib ([1]; during 7-day infusion): approximately four-fold
Terminal phase t½ ([1]; following EOI, biphasic elimination): 84 to 108 h
Detected in samples post EOI up to and including ([1]; plasma, LLOQ 0.25 ng/mL): ≤ 336 h
AUC0–EOI, barasertib-hQPA [1, 6]: 23240 (14.9) ng.h/mL
AUC0–t, barasertib-hQPA [1, 6]: 24040 (3.4) ng.h/mL
Css, barasertib-hQPA [1, 6]: 147.3 (13.9) ng/mL
AUC0–EOI, barasertib-hQPA [1, 7]: 26860 (29.8) ng.h/mL
AUC0–t, barasertib-hQPA [1, 7]: 32840 (23.1) ng.h/mL
Css, barasertib-hQPA [1, 7]: 170.2 (27.4) ng/mL
AUC0–EOI, barasertib-hQPA [1, 8]: 37510 (26.6) ng.h/mL
AUC0–t, barasertib-hQPA [1, 8]: 41850 (28.2) ng.h/mL
Css, barasertib-hQPA [1, 8]: 249.2 (21.0) ng/mL

CCN(CCCOc1ccc2c(Nc3cc(CC(=O)Nc4cccc(F)c4)n[nH]3)ncnc2c1)CCOP(=O)(O)O [Barasertib]
Tolerability of dose level ([2]; barasertib 1200 mg + LDAC): non-tolerated
DLTs reported ([2]; in vivo): No DLTs
Overall response rate (International Working Group criteria; by investigator opinion) ([3]; all patients, barasertib + LDAC, n=10/22): 45%
Complete response with incomplete recovery of neutrophils and/or platelets, patients [3, 9]: 9%
Partial response, patients [3, 9]: 9%
Best clinical response: CR (complete response) [3, 10]: 2 n
Best clinical response: CRi (complete response with incomplete recovery of neutrophils and/or platelets) [3, 10]: 0 n
Best clinical response: ORR (overall response rate) [3, 10]: 3 (50) n (%)
Best clinical response: PR (partial response) [3, 10]: 1 n
Best clinical response: CR (complete response) [3, 11]: 3 n
Best clinical response: CRi (complete response with incomplete recovery of neutrophils and/or platelets) [3, 11]: 2 n
Best clinical response: ORR (overall response rate) [3, 11]: 6 (46) n (%)
Best clinical response: PR (partial response) [3, 11]: 1 n
Response rate ([3]; barasertib 1000 mg cohort + LDAC, 6/13 patients): 46%
Best clinical response: CR (complete response) [3, 12]: 1 n
Best clinical response: CRi (complete response with incomplete recovery of neutrophils and/or platelets) [3, 12]: 0 n
Best clinical response: ORR (overall response rate) [3, 12]: 1 (33) n (%)
Best clinical response: PR (partial response) [3, 12]: 0 n
Complete response, patients with adverse cytogenetic risk ([3]; barasertib + LDAC, n=7): 14%
Complete responses (CR or CRi), patients with intermediate risk cytogenetics ([3]; barasertib + LDAC, n=9): 44%
Incidence of febrile neutropenia ([4]; barasertib monotherapy Phase I study): 47%
Lowest dose associated with clinical activity ([4]; barasertib): 400 mg
Steady-state plasma concentrations observed from, after start of infusion [1]: 24 h
Time following EOI at which levels were generally undetectable ([1]; plasma, LLOQ 0.25 ng/mL): 2 h
Css, barasertib [1, 6]: 46.7 (55.8) ng/mL
Css, barasertib [1, 7]: 44.4 (55.5) ng/mL
Css, barasertib [1, 8]: 64.9 (67.4) ng/mL
Grade ≥3 febrile neutropenia, patients ([5]; MTD of barasertib 1000 mg + LDAC): 69%
Alopecia, AE (any cause; all grades) [5, 13]: 6 (27) n (%)
Anemia, grade ≥3 adverse event [5, 13]: 2 (9) n (%)
Any AE (any cause; all grades) [5, 13]: 22 (100) n (%)
Any grade ≥3 AE [5, 13]: 21 (96) n (%)
Confusional state, AE (any cause; all grades) [5, 13]: 5 (23) n (%)
Constipation, AE (any cause; all grades) [5, 13]: 6 (27) n (%)
Cough, AE (any cause; all grades) [5, 13]: 4 (18) n (%)
Decreased appetite, AE (any cause; all grades) [5, 13]: 4 (18) n (%)
Diarrhea, AE (any cause; all grades) [5, 13]: 10 (46) n (%)
Diarrhea, grade ≥3 adverse event [5, 13]: 2 (9) n (%)
Febrile neutropenia, AE (any cause; all grades) [5, 13]: 13 (59) n (%)
Febrile neutropenia, grade ≥3 adverse event [5, 13]: 13 (59) n (%)
Headache, AE (any cause; all grades) [5, 13]: 5 (23) n (%)
Hemorrhoids, AE (any cause; all grades) [5, 13]: 4 (18) n (%)
Hypertension, AE (any cause; all grades) [5, 13]: 4 (18) n (%)
Insomnia, AE (any cause; all grades) [5, 13]: 4 (18) n (%)
Musculoskeletal pain, AE (any cause; all grades) [5, 13]: 4 (18) n (%)
Nausea, AE (any cause; all grades) [5, 13]: 11 (50) n (%)
Neutropenia, AE (any cause; all grades) [5, 13]: 4 (18) n (%)
Neutropenia, grade ≥3 adverse event [5, 13]: 4 (18) n (%)
Oropharyngeal pain, AE (any cause; all grades) [5, 13]: 5 (23) n (%)
Peripheral edema, AE (any cause; all grades) [5, 13]: 9 (41) n (%)
Petechiae, AE (any cause; all grades) [5, 13]: 6 (27) n (%)
Pneumonia, AE (any cause; all grades) [5, 13]: 6 (27) n (%)
Pneumonia, grade ≥3 adverse event [5, 13]: 3 (14) n (%)
Pyrexia, AE (any cause; all grades) [5, 13]: 5 (23) n (%)
Rash, AE (any cause; all grades) [5, 13]: 4 (18) n (%)
Stomatitis, AE (any cause; all grades) [5, 13]: 9 (41) n (%)
Peripheral edema, patients [5, 9]: 41%
Stomatitis, patients [5, 9]: 41%
Alopecia, AE (any cause; all grades) [5, 10]: 2 n
Anemia, grade ≥3 adverse event [5, 10]: 2 n
Any AE (any cause; all grades) [5, 10]: 6 n
Any grade ≥3 AE [5, 10]: 6 n
Confusional state, AE (any cause; all grades) [5, 10]: 2 n
Constipation, AE (any cause; all grades) [5, 10]: 3 n
Cough, AE (any cause; all grades) [5, 10]: 1 n
Decreased appetite, AE (any cause; all grades) [5, 10]: 2 n
Diarrhea, AE (any cause; all grades) [5, 10]: 5 n
Diarrhea, grade ≥3 adverse event [5, 10]: 1 n
Febrile neutropenia, AE (any cause; all grades) [5, 10]: 4 n
Febrile neutropenia, grade ≥3 adverse event [5, 10]: 4 n
Headache, AE (any cause; all grades) [5, 10]: 3 n
Hemorrhoids, AE (any cause; all grades) [5, 10]: 1 n
Hypertension, AE (any cause; all grades) [5, 10]: 0 n
Insomnia, AE (any cause; all grades) [5, 10]: 0 n
Musculoskeletal pain, AE (any cause; all grades) [5, 10]: 2 n
Nausea, AE (any cause; all grades) [5, 10]: 4 n
Neutropenia, AE (any cause; all grades) [5, 10]: 1 n
Neutropenia, grade ≥3 adverse event [5, 10]: 1 n
Oropharyngeal pain, AE (any cause; all grades) [5, 10]: 1 n
Peripheral edema, AE (any cause; all grades) [5, 10]: 2 n
Petechiae, AE (any cause; all grades) [5, 10]: 3 n
Pneumonia, AE (any cause; all grades) [5, 10]: 3 n
Pneumonia, grade ≥3 adverse event [5, 10]: 0 n
Pyrexia, AE (any cause; all grades) [5, 10]: 3 n
Rash, AE (any cause; all grades) [5, 10]: 2 n
Stomatitis, AE (any cause; all grades) [5, 10]: 3 n
Stomatitis, grade ≥3 adverse event [5, 10]: 0 n
Thrombocytopenia, grade ≥3 adverse event (grade 4) [5, 10]: 1 n
Vomiting, AE (any cause; all grades) [5, 10]: 3 n
Alopecia, AE (any cause; all grades) [5, 11]: 4 n
Anemia, grade ≥3 adverse event [5, 11]: 0 n
Any AE (any cause; all grades) [5, 11]: 13 n
Any grade ≥3 AE [5, 11]: 12 n
Confusional state, AE (any cause; all grades) [5, 11]: 3 n
Constipation, AE (any cause; all grades) [5, 11]: 3 n
Cough, AE (any cause; all grades) [5, 11]: 3 n
Decreased appetite, AE (any cause; all grades) [5, 11]: 1 n
Diarrhea, AE (any cause; all grades) [5, 11]: 5 n
Diarrhea, grade ≥3 adverse event [5, 11]: 1 n
Febrile neutropenia, AE (any cause; all grades) [5, 11]: 9 n
Febrile neutropenia, grade ≥3 adverse event [5, 11]: 9 n
Headache, AE (any cause; all grades) [5, 11]: 2 n
Hemorrhoids, AE (any cause; all grades) [5, 11]: 3 n
Hypertension, AE (any cause; all grades) [5, 11]: 3 n
Insomnia, AE (any cause; all grades) [5, 11]: 3 n
Musculoskeletal pain, AE (any cause; all grades) [5, 11]: 2 n
Nausea, AE (any cause; all grades) [5, 11]: 6 n
Neutropenia, AE (any cause; all grades) [5, 11]: 2 n
Neutropenia, grade ≥3 adverse event [5, 11]: 2 n
Oropharyngeal pain, AE (any cause; all grades) [5, 11]: 4 n
Peripheral edema, AE (any cause; all grades) [5, 11]: 7 n
Petechiae, AE (any cause; all grades) [5, 11]: 2 n
Pneumonia, AE (any cause; all grades) [5, 11]: 3 n
Pneumonia, grade ≥3 adverse event [5, 11]: 3 n
Pyrexia, AE (any cause; all grades) [5, 11]: 2 n
Rash, AE (any cause; all grades) [5, 11]: 2 n
Stomatitis, AE (any cause; all grades) [5, 11]: 4 n
Stomatitis, grade ≥3 adverse event [5, 11]: 2 n
Thrombocytopenia, grade ≥3 adverse event (grade 4) [5, 11]: 1 n
Vomiting, AE (any cause; all grades) [5, 11]: 2 n
Alopecia, AE (any cause; all grades) [5, 12]: 0 n
Anemia, grade ≥3 adverse event [5, 12]: 0 n
Any AE (any cause; all grades) [5, 12]: 3 n
Any grade ≥3 AE [5, 12]: 3 n
Confusional state, AE (any cause; all grades) [5, 12]: 0 n
Constipation, AE (any cause; all grades) [5, 12]: 0 n
Cough, AE (any cause; all grades) [5, 12]: 0 n
Decreased appetite, AE (any cause; all grades) [5, 12]: 1 n
Diarrhea, AE (any cause; all grades) [5, 12]: 0 n
Diarrhea, grade ≥3 adverse event [5, 12]: 0 n
Febrile neutropenia, AE (any cause; all grades) [5, 12]: 0 n
Febrile neutropenia, grade ≥3 adverse event [5, 12]: 0 n
Headache, AE (any cause; all grades) [5, 12]: 0 n
Hemorrhoids, AE (any cause; all grades) [5, 12]: 0 n
Hypertension, AE (any cause; all grades) [5, 12]: 1 n
Insomnia, AE (any cause; all grades) [5, 12]: 1 n
Musculoskeletal pain, AE (any cause; all grades) [5, 12]: 0 n
Nausea, AE (any cause; all grades) [5, 12]: 1 n
Neutropenia, AE (any cause; all grades) [5, 12]: 1 n
Neutropenia, grade ≥3 adverse event [5, 12]: 1 n
Oropharyngeal pain, AE (any cause; all grades) [5, 12]: 0 n
Peripheral edema, AE (any cause; all grades) [5, 12]: 0 n
Petechiae, AE (any cause; all grades) [5, 12]: 1 n
Pneumonia, AE (any cause; all grades) [5, 12]: 0 n
Pneumonia, grade ≥3 adverse event [5, 12]: 0 n
Pyrexia, AE (any cause; all grades) [5, 12]: 0 n
Rash, AE (any cause; all grades) [5, 12]: 0 n
Stomatitis, AE (any cause; all grades) [5, 12]: 2 n
Stomatitis, grade ≥3 adverse event [5, 12]: 2 n
Thrombocytopenia, grade ≥3 adverse event (grade 4) [5, 12]: 0 n
Vomiting, AE (any cause; all grades) [5, 12]: 1 n
ECG assessment [5, 14]: no clinically significant changes
Vital signs, hematology, or clinical chemistry parameters [5, 14]: no clinically relevant adverse changes
Dose interruptions due to AEs [5, 15]: Three
Grade ≥3 febrile neutropenia, patients [5, 15]: 59%
SAE febrile neutropenia [5, 15]: 36%
SAE stomatitis [5, 15]: 9%
SAEs considered related to study treatment [5, 15]: Five
Serious AEs (SAEs), patients [5, 15]: 68%
